Measured values taken from ChEMBL document CHEMBL6134824, “LPS-enriched interaction drives spectrum conversion in antimicrobial peptides: Design and optimization of AA16 derivatives for targeting gram-negative bacteria” (Eur J Med Chem, 2025).
Active and inactive are the calls of the source. No cut-off for these calls is given here.

Tests used:
[1] = Hemolytic activity at mouse Red blood cell assessed as hemolysis; format: toxicity, cell-based; details: erythrocyte
[2] = Hemolytic activity at horse Erythrocyte assessed as hemolysis; format: toxicity, cell-based, Equus caballus; details: horse erythrocytes
[3] = system: Staphylococcus aureus; test: Antibacterial activity against Staphylococcus aureus NCTC 10788 incubated for 16 hrs under shaking condition by standard broth microdilution method; format: functional
[4] = system: Pseudomonas aeruginosa; test: Antibacterial activity against Pseudomonas aeruginosa ATCC 27853 incubated for 16 hrs under shaking condition by standard broth microdilution method; format: functional
[5] = system: Cell membrane; test: Disruption of cell membrane integrity in methicillin-resistant Staphylococcus aureus assessed as reduction in green to red fluorescence by STYO 9 and PI staining based confocal microscopy analysis; format: subcellular
[6] = system: Cell membrane; test: Induction of inner membrane disruption in […] assessed as change in fluorescence intensity at 8 times MIC by DISC3-5 dye based fluorescence analysis; format: subcellular
[7] = system: Staphylococcus aureus; test: Antibacterial activity against methicillin-resistant Staphylococcus aureus ATCC 43300 incubated for 16 hrs under shaking condition by standard broth microdilution method; format: functional
[8] = system: Cell membrane; test: Induction of inner membrane disruption in Pseudomonas aeruginosa assessed as fluorescence intensity at 8 times MIC by DISC3-5 dye based fluorescence analysis; format: subcellular
[9] = system: Cell membrane; test: Induction of cytoplasmic membrane depolarization in […] assessed as change in fluorescence intensity by DISC3-5 dye based fluorescence analysis; format: subcellular
[10] = system: Cell membrane; test: Induction of cytoplasmic membrane depolarization in Pseudomonas aeruginosa assessed as change in fluorescence intensity by DISC3-5 dye based fluorescence analysis; format: subcellular
[11] = system: Escherichia coli; test: Antibacterial activity against Escherichia coli NCTC 10418 incubated for 16 hrs under shaking condition by standard broth microdilution method; format: functional
[12] = system: Cell membrane; test: Induction of cytoplasmic membrane depolarization in […] assessed as increase in fluorescence intensity by DISC3-5 dye based fluorescence analysis; format: subcellular
[13] = system: Cell membrane; test: Disruption of cell membrane integrity in Staphylococcus aureus assessed as reduction in green to red fluorescence by STYO 9 and PI staining based confocal microscopy analysis; format: subcellular
[14] = system: Escherichia coli; test: Antibacterial activity against Escherichia coli DC 29755 incubated for 16 hrs under shaking condition by standard broth microdilution method; format: functional
[15] = system: Lipid bilayer; test: Disruption of membrane integrity in bacterial cell membrane mimic POPC/POPG LUVs assessed as calcein leakage measured for 30 mins by fluorescence based analysis
[16] = system: Lipopolysaccharide (LPS); test: Disaggregation of FITC-labeled Escherichia coli LPS assessed as fluorescence intensity at 0.1 uM measured for 30 mins relative to control
[17] = system: Klebsiella pneumoniae; test: Antibacterial activity against Klebsiella pneumoniae FK 16298 incubated for 16 hrs under shaking condition by standard broth microdilution method; format: functional
[18] = system: Lipopolysaccharide (LPS); test: Binding affinity to LPS (unknown origin) at 4 microg/ml relative to control; details: dose 4.0 µg/ml
[19] = system: Escherichia coli; test: Antibacterial activity against Escherichia coli CMCC 44102 incubated for 16 hrs under shaking condition by standard broth microdilution method; format: functional
[20] = system: Cell membrane; test: Induction of outer membrane permeability in Pseudomonas aeruginosa assessed as fluorescence intensity by 1-N-Nphenylnaphthylamine fluorescent probe based analysis; format: subcellular
[21] = system: Lipopolysaccharide (LPS); test: Disaggregation of FITC-labeled Escherichia coli LPS assessed as change in fluorescence intensity measured for 30 mins; details: dose 0.1-10 µM
[22] = system: Pseudomonas aeruginosa; test: Antibacterial activity against Pseudomonas aeruginosa TL 11004 incubated for 16 hrs under shaking condition by standard broth microdilution method; format: functional
[23] = system: Cell membrane; test: Induction of cytoplasmic membrane depolarization in Pseudomonas aeruginosa assessed as change in fluorescence intensity in protoplast by DISC3-5 dye based fluorescence analysis; format: subcellular
[24] = system: Staphylococcus aureus; test: Antibacterial activity against Staphylococcus aureus incubated for 60 mins in presence of LPS; format: functional, organism-based
[25] = system: Escherichia coli; test: Antibacterial activity against Escherichia coli ATCC 25922 incubated for 16 hrs under shaking condition by standard broth microdilution method; format: functional
[26] = system: Escherichia coli; test: Antibacterial activity against Escherichia coli infected in skin wound infection ICR mouse model assessed as wound scabbing at 20 ug measured after 5 days by photographic analysis; format: functional, organism-based; details: dose 20.0 µg, time 5.0 day
[27] = system: Pseudomonas aeruginosa; test: Antibacterial activity against Pseudomonas aeruginosa TL 11005 incubated for 16 hrs under shaking condition by standard broth microdilution method; format: functional
[28] = system: Escherichia coli; test: Antibacterial activity against Escherichia coli infected in skin wound infection ICR mouse model assessed as wound scabbing at 40 ug measured after 3 days by photographic analysis; format: functional, organism-based; details: dose 40.0 µg, time 3.0 day
[29] = system: Escherichia coli; test: Antibacterial activity against Escherichia coli infected in skin wound infection ICR mouse model assessed as reduction in wound area at 40 ug measured after 7 days by photographic analysis; format: functional; parameters: scale not given: the % may be the effect or the level left; details: dose 40 µg; time 7 day
[30] = system: Cell membrane; test: Disruption of cell membrane integrity in Escherichia coli assessed as increase in red fluorescence intensity at 0.5 times MIC by STYO 9 and PI staining based confocal microscopy analysis; format: subcellular
[31] = system: Cell membrane; test: Disruption of cell membrane integrity in Staphylococcus aureus assessed as increase in red fluorescence intensity at 0.5 times MIC by STYO 9 and PI staining based confocal microscopy analysis; format: subcellular
[32] = system: Pseudomonas aeruginosa; test: Antibacterial activity against Pseudomonas aeruginosa TL 11001 incubated for 16 hrs under shaking condition by standard broth microdilution method; format: functional
[33] = system: Cell membrane; test: Induction of cell membrane depolarization in Pseudomonas aeruginosa assessed as fluorescence intensity by DISC3-5 dye based fluorescence analysis; format: subcellular
[34] = system: Staphylococcus aureus; test: Antibacterial activity against Staphylococcus aureus incubated for 16 hrs under shaking condition in presence of LPS by standard broth microdilution method; format: functional, organism-based
[35] = system: Lipopolysaccharide (LPS); test: Disaggregation of FITC-labeled Escherichia coli LPS assessed as fluorescence intensity at 1 uM measured for 30 mins relative to control
[36] = system: Escherichia coli; test: Antibacterial activity against Escherichia coli infected in skin wound infection ICR mouse model assessed as reduction in wound area at 20 ug measured after 7 days by photographic analysis; format: functional; parameters: scale not given: the % may be the effect or the level left; details: dose 20 µg; time 7 day
[37] = system: Cell membrane; test: Induction of cytoplasmic membrane depolarization in Pseudomonas aeruginosa by DISC3-5 dye based fluorescence analysis; format: subcellular
[38] = molecular target: Lipopolysaccharide (LPS); test: Binding affinity to LPS (unknown origin) assessed as dissociation constant by MST analysis
[39] = system: Lipopolysaccharide (LPS); test: Disaggregation of FITC-labeled Escherichia coli LPS assessed as change in fluorescence intensity at 0.01 to 100 uM measured for 30 mins; details: dose 0.01-100 µM
[40] = system: Lipopolysaccharide (LPS); test: Disaggregation of FITC-labeled Escherichia coli LPS assessed as fluorescence intensity at 0.01 uM measured for 30 mins relative to control

Ac-AARILSRILRRALRVL-NH2
MHC [1]: 155 µg/mL | HC50 [2]: 155 µg/mL | MIC [3]: 4 µg/mL | MIC [4]: 8 µg/mL | Activity [5]: Active | Activity [6]: Active | MIC [7]: 16 µg/mL | Flu intensity [8]: 2300 | Activity [9]: Active | Activity [10]: Active | MIC [11]: 4 µg/mL | Activity [12]: Active | Activity [13]: Active

Ac-AARILSRILSGALRVL-NH2
MHC [1]: 161 µg/mL | HC50 [2]: 161 µg/mL | MIC [3]: 4 µg/mL | MIC [4]: 64 µg/mL | MIC [7]: 4 µg/mL | MIC [11]: 16 µg/mL | Activity [12]: Active

Ac-AARILSRILRFALRVL-NH2
MHC [1]: 34.197 µg/mL | HC50 [2]: 34.2 µg/mL | MIC [3]: 32 µg/mL | MIC [4]: > 512 µg/mL | Activity [5]: Active | Activity [6]: Active | MIC [7]: 16 µg/mL | Flu intensity [8]: 2410 | MIC [11]: > 512 µg/mL | Activity [13]: Active

Ac-AARIPSRILRGALRVL-NH2
MIC [14]: 64 µg/mL | Activity [15]: 10% | Flu intensity [16]: 21.5 | MIC [17]: 128 µg/mL | MHC [1]: > 512 µg/mL | Activity [18]: > 90% | MIC [19]: 32 µg/mL | HC50 [2]: > 512 µg/mL | MIC [3]: 256 µg/mL | Flu intensity [20]: 30000 | MIC [4]: 32 µg/mL | Activity [5]: Active | Activity [21]: Dose-dependent-effect | MIC [22]: 128 µg/mL | Activity [23]: Active | Activity [24]: Dose-dependent-effect | MIC [25]: 64 µg/mL | Activity [26]: Active | MIC [27]: 32 µg/mL | Activity [28]: Active | Activity [29]: 44.8% | Activity [30]: Active | Activity [31]: Active | MIC [7]: 128 µg/mL | MIC [32]: 512 µg/mL | Activity [9]: Active | Flu intensity [33]: 781 | Activity [34]: Active | Activity [10]: Active | MIC [11]: 16 µg/mL | Flu intensity [35]: 195 | Activity [36]: 32.5% | Activity [37]: Active | Activity [13]: Active | Kd [38]: 0.152 µM | Activity [39]: Active

Ac-AARIFSRILFGALRVL-NH2
MHC [1]: 110 µg/mL | HC50 [2]: 110 µg/mL | MIC [3]: 8 µg/mL | MIC [4]: 32 µg/mL | MIC [7]: 4 µg/mL | MIC [11]: 32 µg/mL

Ac-AARIPSRILFRALRVL-NH2
MHC [1]: > 512 µg/mL | HC50 [2]: > 512 µg/mL | MIC [3]: 32 µg/mL | MIC [4]: 64 µg/mL | MIC [7]: 16 µg/mL | MIC [11]: 32 µg/mL | Activity [12]: Active

Ac-AARILSRILRGALRVL-NH2
MHC [1]: 403 µg/mL | HC50 [2]: 403 µg/mL | MIC [3]: 4 µg/mL | MIC [4]: 16 µg/mL | MIC [7]: 8 µg/mL | MIC [11]: 32 µg/mL

Ac-AARIPSRILKGALRVL-NH2
MHC [1]: > 512 µg/mL | HC50 [2]: > 512 µg/mL | MIC [3]: 512 µg/mL | MIC [4]: 64 µg/mL | MIC [7]: 256 µg/mL | MIC [11]: 128 µg/mL

Ac-AARIFSRILRGALRVL-NH2
MHC [1]: 179 µg/mL | HC50 [2]: 179 µg/mL | MIC [3]: 4 µg/mL | MIC [4]: 16 µg/mL | MIC [7]: 8 µg/mL | MIC [11]: 8 µg/mL

Ac-AARILSRILRFFLRVL-NH2
MHC [1]: 13.37 µg/mL | HC50 [2]: 13.4 µg/mL | MIC [3]: 128 µg/mL | MIC [4]: > 512 µg/mL | MIC [7]: 128 µg/mL | MIC [11]: 256 µg/mL

Ac-AARIPSRILFFALVRL-NH2
MHC [1]: > 512 µg/mL | HC50 [2]: > 512 µg/mL | MIC [3]: 16 µg/mL | MIC [4]: > 512 µg/mL | MIC [7]: 16 µg/mL | MIC [11]: 64 µg/mL | Activity [12]: Active

Ac-AAKILSKILKGALKVL-NH2
MHC [1]: 442 µg/mL | HC50 [2]: 442 µg/mL | MIC [3]: 8 µg/mL | MIC [4]: 16 µg/mL | MIC [7]: 4 µg/mL | MIC [11]: 8 µg/mL

Ac-AARIPSRILFGALRVL-NH2
MIC [14]: 128 µg/mL | Activity [15]: 50.1% | MIC [17]: 256 µg/mL | MHC [1]: > 512 µg/mL | Flu intensity [40]: -95 | MIC [19]: 128 µg/mL | HC50 [2]: > 512 µg/mL | MIC [3]: 128 µg/mL | Flu intensity [20]: 10000 | MIC [4]: 256 µg/mL | MIC [22]: 512 µg/mL | MIC [25]: 128 µg/mL | MIC [27]: 128 µg/mL | MIC [7]: 128 µg/mL | MIC [32]: 512 µg/mL | Activity [9]: Active | Flu intensity [33]: 676 | Activity [10]: Active | MIC [11]: 64 µg/mL | Kd [38]: 39.1 µM

Ac-AARILSRILFGALRVL-NH2
MHC [1]: 51.663 µg/mL | HC50 [2]: 51.7 µg/mL | MIC [3]: 8 µg/mL | MIC [4]: 32 µg/mL | MIC [7]: 8 µg/mL | MIC [11]: 32 µg/mL
